The results in this text go back to US20030086902A1, “Cytokine-like peptide” (priority 1999, published 2003).

Holding throughout (format): cell-based
Experiment [1] has as its system sindbis viruses. Description: antiviral activity in the presence of interferon neutralizing antibodies (FL cells, sindbis viruses). The settings on record: MIF-1 (anti-IFN α), YSB-1 (anti-IFN β), anti-IFN γ antibodies added. As for the experimental part: In order to deny the possibility that the antiviral activity of peptide SYR6 is attained by inducing endogenous production of interferon, the antiviral activity in the presence of various interferon neutralizing antibodies was examined. FL cells were inoculated on wells of a 96-well microtiter plate (IWAKI GLASS CO., LTD.) at 3.5×10^5 cells/well and cultured for 24 hours. Thereafter, peptide SYR6 was added at the concentration shown in FIG. 5 (0.9 μM to 120 μM) and cultured for 24 hours. […] Thereafter, sindbis viruses were added to each well and cultured for 15 hours. In this case also, various neutralizing antibodies were added and cultured under the same conditions as described above. The culture solution was discarded, the plate was immersed in a crystal violet solution containing formalin for about 15 minutes, and living cells were immobilized and stained. […] Therefore, the possibility that the antiviral activity of peptide SYR6 was attained by inducing the production of endogenous interferon was denied.

In experiment [2] the test system is vesicular stomatitis viruses (VSV). The settings on record: human amnion-derived FL cells.
In experiment [3] the test system is sindbis viruses. Description: antiviral bioassay using FL cells and sindbis viruses. Here is the method: The antiviral activity of the resultant synthetic peptides was inspected by a bioassay method using human amnion-derived FL cells and sindbis viruses (Armstrong, J. A., Methods in Enzymology, 78, 381-387 (1981)). FL cells were inoculated on wells of a 96-well microtiter plate (IWAKI GLASS CO., LTD.) at 3.5×10^5 cells/well and cultured for 24 hours. Thereafter, each peptide was added at the concentration shown in FIG. 3 (0.9 μM to 120 μM) and cultured for 24 hours. […] Thereafter, sindbis viruses were added to each well and cultured for 15 hours. The culture solution was discarded, the plate was immersed in a crystal violet solution containing formalin for about 15 minutes, and living cells were immobilized and stained.
In order to identify an amino acid residue that plays an important role in expressing the antiviral activity of peptide SYR6, 12 types of varied peptides were prepared through chemical synthesis in which each of all the amino acid residues other than alanine of SYR6 were respectively substituted with alanine (peptides were successively designated as N1 to N15 in order from the N-terminus side in accordance with the number of the amino acid residue converted into alanine. Since the fourth, eighth, and ninth residues are alanine, excluding these, a total of 12 types of peptides was prepared). The sequences are shown in the lower part of FIG. 7. […]

With “SYR6: synthetic 15-residue peptide with the sequence of phage 6, SEQ ID NO: 1 (SVQARWEAAFDLDLY; Designed peptide based on the DNA sequence of phage binding to monoclonal antibody YSB-2)”, the “antiviral activity in the presence of interferon neutralizing antibodies” value in experiment [1] is on record as “not affected at all”. Besides, the “concentration at which the peptide began to exhibit antiviral activity” value came out at 30 µM in experiment [2] and 30 µM in experiment [3] (human amnion-derived FL cells, peptide 0.9 μM to 120 μM for 24 hours). In experiment [3] (FL cells, SYR6 HPLC peaks measured separately), the “antiviral activity of the synthetic peptides (FIG. 3)” value was “activity was recognized”.
